Tests used:
[1] = tested on: human keratinocytes (HaCaT) cells; assay: Annexin-V externalization (pro-apoptotic effect); type: cell-based; conditions: 48 h, vs control
Method: Pro-apoptotic effect of IS217 was evaluated in human keratinocytes (HaCaT) cells by using the Annexin-V externalization. In this study, cells were plated and incubated for about 24 hours by using dulbecco's modified eagle's medium (DMEM) with about 10% fetal bovine serum (FBS) and cells were sera starved using about 0.1% FBS for about 3 hours. HaCaT cells were treated with IS217 at about 0 hours and about 24 hours in concentration range of from about 100 μg/ml to about 5000 μg/ml and incubated for about 24 hours. Curcumin (1 μM-50 μM) was used as positive control. After about 48 hours of first treatment, cells were incubated with Annexin-V reagent and subsequently analyzed by flow cytometry (Guava technologies) for identification of cells population.

[2] = tested on: HaCaT cell lines; assay: Cell cycle assay (Sub-G0/G1, pro-apoptotic effect); type: cell-based, human; conditions: 48 h, vs untreated
Description: HaCaT cell lines were used as test system since it is widely used for studying anti-psoriatic effects. Curcumin dissolved in DMSO was taken as positive control for validation purpose. Apoptotic effect on HaCaT cell lines was detected by flow cytometry analysis.

[3] = tested on: EA.hy926 cells; assay: Induction of DNA fragmentation in human endothelial cell line; type: cell-based
Method: EA.hy926 cells, a well reported in vitro model to study the anti-angiogenic potential used for assessing apoptotic effect of IS217 through induction of DNA fragmentation. Cell conditions were maintained using DMEM, about 10% FBS, CO2 incubator and serum starved using 1% FBS. The starved cells were treated with IS217 in the concentrations of 100 μg/ml, 500 μg/ml, 1000 μg/ml, 2000 μg/ml, 5000 μg/ml and incubated for about 48 hours. Anthralin in concentrations of 0.1 μM and 0.5 μM was used as positive control.
The fragmented DNA after lysis was precipitated using PEG/NaCl solution and incubated with 0.2 μg/ml of Hoechst 33258 dye, fluorescence was read at 360 ex/460 em using Biotek synergy HT multimode reader.

[4] = tested on: JAK-STAT pathway; assay: Z′LYTE activity assay, tyrosine kinases; type: biochemical
Description: (§1) Tyrosine kinases play key role in pathogenesis of psoriasis IS217 was investigated for possible inhibition of various tyrosine kinase, which play crucial role in pathogenesis of psoriasis. The method employed to detect the effect was Z′LYTE activity assay.

[5] = tested on: MAPK1 (MEK 1); assay: Z′LYTE activity assay, tyrosine kinases; type: biochemical; conditions: 10 μg/ml-250 μg/ml
Description: as §1

[6] = tested on: other kinases; assay: Z′LYTE activity assay, tyrosine kinases; type: biochemical; conditions: low concentration tested of 10 μg/ml
Description: as §1

[7] = target: T1, Topoisomerase II enzyme (Homo sapiens, UniProt P11388); assay: Topoisomerase II inhibition (kinetoplast DNA decatenation, agarose gel); type: biochemical
T1 construct: purchased TopoGen TG2000H-1
T1 sequence (P11388 whole entry): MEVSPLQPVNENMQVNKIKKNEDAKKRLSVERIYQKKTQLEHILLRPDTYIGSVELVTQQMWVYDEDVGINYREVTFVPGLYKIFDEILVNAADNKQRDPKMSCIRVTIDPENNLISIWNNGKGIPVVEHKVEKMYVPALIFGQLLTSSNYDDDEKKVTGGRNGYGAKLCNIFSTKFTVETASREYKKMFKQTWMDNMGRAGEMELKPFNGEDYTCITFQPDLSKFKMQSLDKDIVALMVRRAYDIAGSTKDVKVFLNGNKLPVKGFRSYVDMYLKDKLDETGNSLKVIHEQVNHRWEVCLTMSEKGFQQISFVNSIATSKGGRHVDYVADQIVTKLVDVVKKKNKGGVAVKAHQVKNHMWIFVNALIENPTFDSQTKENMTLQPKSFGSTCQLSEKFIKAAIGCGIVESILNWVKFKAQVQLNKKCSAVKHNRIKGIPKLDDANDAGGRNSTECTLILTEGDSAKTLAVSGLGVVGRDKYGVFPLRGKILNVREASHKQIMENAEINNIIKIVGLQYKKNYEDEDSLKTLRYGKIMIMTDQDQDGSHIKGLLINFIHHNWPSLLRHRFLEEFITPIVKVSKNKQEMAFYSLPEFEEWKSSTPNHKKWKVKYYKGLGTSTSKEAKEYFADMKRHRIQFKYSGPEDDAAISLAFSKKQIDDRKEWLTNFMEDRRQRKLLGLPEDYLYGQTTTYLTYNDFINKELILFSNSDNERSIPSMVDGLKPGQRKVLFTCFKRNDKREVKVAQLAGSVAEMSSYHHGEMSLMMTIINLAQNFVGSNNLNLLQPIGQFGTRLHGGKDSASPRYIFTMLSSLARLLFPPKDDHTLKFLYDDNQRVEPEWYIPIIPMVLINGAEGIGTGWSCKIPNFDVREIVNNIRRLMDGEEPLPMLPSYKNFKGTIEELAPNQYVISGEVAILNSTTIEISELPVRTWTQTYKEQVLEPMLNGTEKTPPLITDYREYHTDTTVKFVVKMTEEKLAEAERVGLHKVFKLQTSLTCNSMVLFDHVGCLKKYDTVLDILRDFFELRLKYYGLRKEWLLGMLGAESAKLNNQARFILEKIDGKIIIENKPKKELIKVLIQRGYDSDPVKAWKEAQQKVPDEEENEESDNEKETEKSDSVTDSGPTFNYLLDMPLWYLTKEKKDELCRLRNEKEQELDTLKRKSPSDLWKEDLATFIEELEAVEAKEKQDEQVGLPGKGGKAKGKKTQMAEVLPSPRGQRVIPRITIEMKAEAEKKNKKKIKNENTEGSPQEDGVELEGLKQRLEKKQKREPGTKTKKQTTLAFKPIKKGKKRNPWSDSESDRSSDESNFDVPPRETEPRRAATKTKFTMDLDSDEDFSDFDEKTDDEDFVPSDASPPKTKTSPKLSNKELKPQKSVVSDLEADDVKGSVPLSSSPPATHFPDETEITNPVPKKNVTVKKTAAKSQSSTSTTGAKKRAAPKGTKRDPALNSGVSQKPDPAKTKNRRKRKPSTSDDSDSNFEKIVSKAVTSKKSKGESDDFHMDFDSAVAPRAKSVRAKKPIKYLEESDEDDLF
Method: Topoisomerase II inhibitory potential of IS217 was evaluated using widely reported kinetoplast DNA as test system in presence of Topoisomerase II enzyme. IS217 was tested at concentrations ranging from 0.01 μg/ml to 1 mg/ml. Doxorubucin hydrochloride and nalidixic acid were used as positive controls at the concentration of 10 μM and 1 mg/ml, respectively.
Inhibition of release of decatenated KDNA products was used as a specific marker to assess the inhibitory activity of IS217 on topoisomerase II enzyme, which was determined by using 1% agarose gel electrophoresis.

[8] = tested on: TNF-α, IFN-γ, TARC, TSLP, IL-6, IL-8, IL-23, IL-17A and IL-1-0 levels; assay: Cytokine levels in LPS stimulated RAW264.7 cells and HaCaT cells; type: cell-based; conditions: LPS stimulated RAW264.7 and HaCaT cells, vs untreated controls
Description: In pathogenesis of psoriasis, angiogenesis and tyrosine kinases involves cell proliferation, cell migration, DNA Fragmentation and tube formation in endothelial cells. […] RAW264.7 cells (Murine macrophage cell line) which is stimulated with LPS and in HaCaT cells human keratinocytes (HaCaT) TNF-α, IFN-γ, TARC, TSLP, IL-6, IL-8, IL-23, IL-17A and IL-1-0 levels were overexpressed in disease pathogenesis, but when treated with IS217, all the above mentioned cytokines levels are decreased when compared with untreated controls.

[9] = target: T2, CYP1A2 (Homo sapiens, UniProt P05177); assay: in vitro; type: in vitro ADME
T2 construct: purchased
T2 sequence (P05177 whole entry): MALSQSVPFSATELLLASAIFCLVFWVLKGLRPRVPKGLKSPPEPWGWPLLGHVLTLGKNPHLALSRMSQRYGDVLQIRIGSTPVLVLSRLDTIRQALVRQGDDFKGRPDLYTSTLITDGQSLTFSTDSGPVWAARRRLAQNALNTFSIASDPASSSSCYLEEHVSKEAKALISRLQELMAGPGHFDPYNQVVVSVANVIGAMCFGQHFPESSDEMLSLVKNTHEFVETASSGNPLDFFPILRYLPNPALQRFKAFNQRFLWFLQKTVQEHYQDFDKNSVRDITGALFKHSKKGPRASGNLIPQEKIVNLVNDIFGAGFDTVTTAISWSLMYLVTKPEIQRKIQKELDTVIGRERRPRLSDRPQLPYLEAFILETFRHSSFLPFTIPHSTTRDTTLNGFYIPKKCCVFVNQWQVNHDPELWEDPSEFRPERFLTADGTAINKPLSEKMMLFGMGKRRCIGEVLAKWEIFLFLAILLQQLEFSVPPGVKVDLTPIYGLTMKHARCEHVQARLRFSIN
Method: (§2) The study design determined inhibition potential of test item (IS217) for CYP3A4, CYP1A2, CYP2C9, CYP2D6 and CYP2C19 using high throughput inhibitor screening kit. The experiment was performed with concentrations range of 10 μg/mL to 0.005 μg/mL of test compound IS217. Positive controls taken were specific to individual kit, which were taken as follows:
(§3) At the end of incubation period, metabolism of fluorescent substrates to their metabolites was read using fluorescent multiwall spectrophotometer (Biotek reader). Very less (<20% at 10 μg/mL) to no inhibition potential was observed towards enzymes CYP3A4, CYP2C9, CYP2D6, CYP1A2 and CYP2C19.

[10] = target: T3, CYP2C19 (Homo sapiens, UniProt P33261); assay: in vitro; type: in vitro ADME
T3 construct: purchased
T3 sequence (P33261 whole entry): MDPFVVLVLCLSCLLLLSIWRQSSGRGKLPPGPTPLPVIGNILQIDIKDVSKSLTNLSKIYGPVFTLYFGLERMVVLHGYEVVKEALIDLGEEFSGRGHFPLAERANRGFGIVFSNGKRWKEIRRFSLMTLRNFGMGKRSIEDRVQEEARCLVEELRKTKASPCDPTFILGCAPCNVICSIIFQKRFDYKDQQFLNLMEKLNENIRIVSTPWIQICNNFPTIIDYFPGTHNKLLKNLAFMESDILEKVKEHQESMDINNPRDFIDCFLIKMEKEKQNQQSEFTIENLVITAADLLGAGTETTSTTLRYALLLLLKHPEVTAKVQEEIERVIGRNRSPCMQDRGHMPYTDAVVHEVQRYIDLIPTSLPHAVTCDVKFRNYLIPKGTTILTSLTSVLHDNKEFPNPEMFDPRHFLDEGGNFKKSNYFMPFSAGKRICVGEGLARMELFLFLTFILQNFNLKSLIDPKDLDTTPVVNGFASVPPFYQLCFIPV
Method: as §2, §3

[11] = target: T4, CYP2C9 (Homo sapiens, UniProt P11712); assay: in vitro; type: in vitro ADME
T4 construct: purchased
T4 sequence (P11712 whole entry): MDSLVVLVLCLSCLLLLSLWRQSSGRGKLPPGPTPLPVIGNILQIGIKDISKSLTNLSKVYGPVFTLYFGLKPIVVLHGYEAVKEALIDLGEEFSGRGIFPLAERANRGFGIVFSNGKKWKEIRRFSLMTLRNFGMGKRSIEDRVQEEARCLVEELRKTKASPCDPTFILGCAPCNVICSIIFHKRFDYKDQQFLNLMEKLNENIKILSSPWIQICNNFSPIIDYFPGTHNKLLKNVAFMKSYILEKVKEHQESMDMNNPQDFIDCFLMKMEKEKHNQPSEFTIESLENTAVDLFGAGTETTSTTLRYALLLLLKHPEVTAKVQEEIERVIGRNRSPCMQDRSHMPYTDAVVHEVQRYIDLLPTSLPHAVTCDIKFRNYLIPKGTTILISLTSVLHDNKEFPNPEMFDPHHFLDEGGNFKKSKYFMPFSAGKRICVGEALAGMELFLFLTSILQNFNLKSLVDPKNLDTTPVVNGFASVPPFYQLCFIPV
Method: as §2, §3

[12] = target: T5, CYP2D6 (Homo sapiens, UniProt P10635); assay: in vitro; type: in vitro ADME
T5 construct: purchased
T5 sequence (P10635 whole entry): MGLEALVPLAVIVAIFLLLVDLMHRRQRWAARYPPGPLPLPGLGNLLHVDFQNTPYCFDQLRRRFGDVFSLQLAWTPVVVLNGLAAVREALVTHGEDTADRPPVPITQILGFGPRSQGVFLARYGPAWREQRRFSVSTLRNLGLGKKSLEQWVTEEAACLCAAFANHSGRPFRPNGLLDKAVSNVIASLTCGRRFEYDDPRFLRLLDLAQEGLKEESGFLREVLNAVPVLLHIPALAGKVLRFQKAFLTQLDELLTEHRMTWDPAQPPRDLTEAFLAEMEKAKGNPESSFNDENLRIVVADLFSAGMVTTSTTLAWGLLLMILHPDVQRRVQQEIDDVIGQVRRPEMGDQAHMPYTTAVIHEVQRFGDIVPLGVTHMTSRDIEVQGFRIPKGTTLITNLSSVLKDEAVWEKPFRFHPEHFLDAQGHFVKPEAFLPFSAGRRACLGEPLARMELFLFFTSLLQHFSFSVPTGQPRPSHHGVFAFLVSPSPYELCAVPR
Method: as §2, §3

[13] = target: T6, CYP3A4 (Homo sapiens, UniProt P08684); assay: in vitro; type: in vitro ADME
T6 construct: purchased
T6 sequence (P08684 whole entry): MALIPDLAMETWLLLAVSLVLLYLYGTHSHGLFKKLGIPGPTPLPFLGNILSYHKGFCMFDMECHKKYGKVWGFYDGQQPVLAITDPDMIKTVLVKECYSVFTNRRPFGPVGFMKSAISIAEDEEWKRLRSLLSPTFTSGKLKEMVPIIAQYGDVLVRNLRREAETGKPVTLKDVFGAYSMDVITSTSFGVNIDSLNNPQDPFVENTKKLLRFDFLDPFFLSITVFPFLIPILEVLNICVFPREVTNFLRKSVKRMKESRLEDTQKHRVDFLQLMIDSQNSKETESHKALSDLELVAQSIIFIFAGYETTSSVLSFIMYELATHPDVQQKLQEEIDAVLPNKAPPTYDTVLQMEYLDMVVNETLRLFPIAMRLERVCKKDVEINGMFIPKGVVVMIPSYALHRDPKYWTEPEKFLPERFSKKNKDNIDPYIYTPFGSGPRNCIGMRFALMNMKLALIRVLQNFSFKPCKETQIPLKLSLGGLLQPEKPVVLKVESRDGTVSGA
Method: as §2, §3

[14] = tested on: Salmonella typhimurium tester strains; assay: Bacterial reverse mutation test; type: cell-based; conditions: five tester strains, upto 1000 μg/plate, with and without metabolic activation
Description: 17.1: Bacterial Reverse Mutation Test in Salmonella typhimurium Tester Strains:
This was confirmed by in vivo studies which are mandatory for any drug, as a part of safety toxicological studies.

H-FAKKFAKKFK-OH [IS217, H-Phe-Ala-Lys-Lys-Phe-Ala-Lys-Lys-Phe-Lys-OH]
increase in necrotic cells ([1]; 100 μg/ml): 3.6 fold
increase in late apoptotic cells ([1]; 1000 μg/ml): 1.7 fold
increase in late apoptotic cells ([1]; 2000 μg/ml): 3.4 fold
increase in necrotic cells ([1]; 2000 μg/ml): 1.4 fold
increase in late apoptotic cells ([1]; 5000 μg/ml): 5.6 fold
increase in necrotic cells ([1]; 5000 μg/ml): 3.1 fold
increase in early apoptotic cells ([1]; HaCaT, 100-5000 μg/ml): no increase
increase in pro-apoptotic cells (Sub-G0/G1 population) ([2]; 100 μg/mL): 1.2 fold
increase in pro-apoptotic cells (Sub-G0/G1 population) ([2]; 500 μg/mL): 5.0 fold
increase in pro-apoptotic cells (Sub-G0/G1 population) ([2]; 1000 μg/mL): 6.8 fold
increase in pro-apoptotic cells (Sub-G0/G1 population) ([2]; 5000 μg/mL): 1.1 fold
induction of DNA fragmentation ([3]; EA.hy926, 1000 μg/ml, 48 h): 24.53%
percentage of induction of DNA fragmentation ([3]; EA.hy926, 2000 μg/ml and 5000 μg/ml): significant decrease
inhibition of JAK-STAT pathway [4]: No inhibition
inhibition of MAPK1 (MEK 1) [5]: good inhibition
inhibition of other kinases [6]: Moderate to low inhibition
topoisomerase II enzyme inhibition ([7]; 0.01 μg/ml to 10 μg/ml): no topoisomerase II enzyme inhibition
topoisomerase II enzyme inhibition ([7]; 100 μg/ml): some extent of inhibition
topoisomerase II enzyme inhibition ([7]; 1 mg/ml, highest tested concentration): better inhibition
cytokines levels (TNF-α, IFN-γ, TARC, TSLP, IL-6, IL-8, IL-23, IL-17A, IL-1-0) [8]: decreased
inhibition at 10 μg/mL [9]: < 20%
inhibition potential towards CYP1A2 as compared to others [9]: slightly higher potential
inhibition at 10 μg/mL [10]: < 20%
inhibition at 10 μg/mL [11]: < 20%
inhibition at 10 μg/mL [12]: < 20%
inhibition at 10 μg/mL [13]: < 20%
mutagenicity (gene mutations at histidine locus) [14]: non mutagenic
Shelf life of IS217 API: about 2 years
appearance of reconstituted solution (0.9% sodium chloride): clear and colourless
Dissolution of the lyophilized powder completed in (reconstitution with 0.9% sodium chloride): less than 2 minutes

Reference: patent US20240123022A1, “A STABLE ANTI-ANGIOGENIC AND ANTI-INFLAMMATORY PHARMACEUTICAL FORMULATION AND PHARMACEUTICAL COMBINATION FOR TREATMENT AND PREVENTION OF PSORIASIS” (priority 2021, published 2024)
